Assay results: US7112579B2, “26,27-Homologated-20-EPI-2-alkyl-19-nor-vitamin D compounds” (Wisconsin Alumni Research Foundation, priority 1997, dated 2006)
Entries after “also recorded” stand apart in the source; their conditions may differ. Where two headings read alike, the source gives them in different places.

Tests used:
[1] = biological target: T1, porcine intestinal vitamin D receptor (Sus scrofa, UniProt A3RGC1); test: Competitive binding to the porcine intestinal vitamin D receptor ([3H]-1,25-(OH)2-D3 displacement); set-up: species or system pig; conditions: for ability to bind the porcine intestinal vitamin D receptor, in words: FIGS. 1, 3 and 5, comparison in words; for VDR Binding ratio: analog average ED50 / ED50 for 1α,25-(OH)2D3; for EC50: concentration for 50% displacement of radiolabeled 1α,25-(OH)2D3, read-out: VDR Binding ED50
T1 construct: from tissue; host or cells: porcine intestine
T1 sequence (A3RGC1 1-427): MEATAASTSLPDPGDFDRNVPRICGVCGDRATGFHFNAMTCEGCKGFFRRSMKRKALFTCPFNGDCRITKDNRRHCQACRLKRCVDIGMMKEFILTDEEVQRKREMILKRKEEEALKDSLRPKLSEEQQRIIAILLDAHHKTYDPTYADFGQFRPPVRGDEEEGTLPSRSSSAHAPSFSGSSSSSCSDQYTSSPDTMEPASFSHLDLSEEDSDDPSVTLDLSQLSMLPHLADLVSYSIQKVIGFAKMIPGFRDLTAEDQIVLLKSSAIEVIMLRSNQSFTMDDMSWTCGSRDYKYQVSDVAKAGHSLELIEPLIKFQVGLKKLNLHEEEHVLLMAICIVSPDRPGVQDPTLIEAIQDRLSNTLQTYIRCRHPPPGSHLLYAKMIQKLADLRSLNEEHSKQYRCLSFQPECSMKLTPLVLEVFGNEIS

[2] = system: human promyelocyte HL-60 cells; test: Differentiation of HL-60 promyelocytes into monocytes (NBT reduction); assay type: cell-based; conditions: for induction of differentiation of HL-60 cells to monocytes, in words: FIGS. 2, 4, 6, comparison in words; for HL-60 differentiation, more active than corresponding 2β-isomer: 12 vs 13, 18 vs 19; for HL-60 Differentiation Activity ratio: analog average ED50 / ED50 for 1α,25-(OH)2D3; for HL-60 Differentiation ED50: concentration inducing 50% maturation (NBT)
Text: In the next assay, the cellular activity of the synthesized compounds was established by studying their ability to induce differentiation of human promyelocyte HL-60 cells into monocytes.

[3] = system: intestinal calcium transport; test: Intestinal calcium transport (everted sac), chronic doses 7 days i.p., vitamin D-deficient rats; assay type: in vivo, rat; conditions: for intestinal calcium transport activity, in words: chronic 7 days, 130 and/or 260 pmol/day
Experimental: (§1) Male weanling rats were obtained from Sprague Dawley Co. (Indianapolis, Ind.) and fed a 0.47% calcium, 0.3% phosphorus vitamin D-deficient diet for 1 week and then given the same diet containing 0.02% calcium, 0.3% phosphorus for 2 weeks. During the last week they were given the indicated dose of compound by intraperitoneal injection in 0.1 ml 95% propylene glycol and 5% ethanol each day for 7 days. The control animals received only the 0.1 ml of 95% propylene glycol, 5% ethanol. Twenty-four hours after the last dose, the rats were sacrificed and intestinal calcium transport was determined by everted sac technique as previously described and serum calcium determined by atomic absorption spectrometry on a model 3110 Perkin Elmer instrument (Norwalk, Conn.). There were 5 rats per group and the values represent mean±SEM.
as §1, with “With respect to the data in Tables 3 and 4, male” for “Male”, “atormic” for “atomic”

[4] = system: serum calcium (bone calcium mobilization); test: Serum calcium (bone calcium mobilization), chronic doses 7 days i.p., vitamin D-deficient rats; assay type: in vivo, rat; conditions: for calcemic activity (intestinal calcium transport and bone calcium mobilization), in words: chronic doses, rats; for bone calcium mobilization (serum calcium) activity, in words: chronic 7 days, 130 and/or 260 pmol/day
Experimental: as §1
as §1, with “With respect to the data in Tables 3 and 4, male” for “Male”, “atormic” for “atomic”

[5] = system: intestinal calcium transport; test: Support of intestinal calcium transport in vitamin D-deficient rats on a low-calcium diet (3 weeks), 7 daily i.p. doses; assay type: in vivo, rat
[6] = system: bone calcium mobilization (serum Ca); test: Bone calcium mobilization (serum Ca) in vitamin D-deficient rats on a low-calcium diet (3 weeks), 7 daily i.p. doses; assay type: in vivo, rat
[7] = Table 5, 130 pmol/day/7 days i.p.
[8] = Table 5, 260 pmol/day/7 days i.p.
[9] = Table 4, 130 pmol/day/7 days i.p., mean±SEM
[10] = Table 4, 260 pmol/day/7 days i.p., mean±SEM
[11] = Table 9 panel 2, 65 pmol daily x 7 i.p.
[12] = Table 9 panel 2, 260 pmol daily x 7 i.p.
[13] = Table 3, 130 pmol/day/7 days i.p., mean±SEM
[14] = Table 3, 260 pmol/day/7 days i.p., mean±SEM
[15] = Table 5, 130 pmol/day/7 days i.p., listed as 2β-Hydroxymethyl-19-nor-20(S)-1,25-(OH)2D3
[16] = Table 5, 260 pmol/day/7 days i.p., listed as 2β-Hydroxymethyl-19-nor-20(S)-1,25-(OH)2D3
[17] = Table 7 panel 1, 32 pmol daily x 7 i.p.
[18] = Table 7 panel 1, 65 pmol daily x 7 i.p.
[19] = Table 4, 130 pmol/day/7 days i.p., mean±SEM, listed as 2β-Methyl-19-nor-1,25-(OH)2D3
[20] = Table 4, 260 pmol/day/7 days i.p., mean±SEM, listed as 2β-Methyl-19-nor-1,25-(OH)2D3
[21] = listed as 2β-methyl-19-nor-1,25-(OH)2D3

CC(CCCC(C)(C)O)C1CCC2C(=CC=C3CC(O)C(CO)C(O)C3)CCCC21C [Compound 22, 2α-Hydroxymethyl-19-nor-20(S)-1,25-(OH)2D3]
ability to bind the porcine intestinal vitamin D receptor, in words [1]: almost equivalent to 1α,25-(OH)2D3
induction of differentiation of HL-60 cells to monocytes, in words [2]: high potency in cellular differentiation
Intestinal Calcium Transport (S/M) [3, 7]: 5.0 ± 0.3 S/M
Intestinal Calcium Transport (S/M) [3, 8]: 5.8 ± 0.4 S/M
Serum Calcium [4, 7]: 4.0 ± 0.1 mg/100 ml
Serum Calcium [4, 8]: 3.9 ± 0.1 mg/100 ml
calcemic activity (intestinal calcium transport and bone calcium mobilization), in words [4]: relatively inactive; also recorded: lack of calcemic activity

CC1[C@H](O)CC(=C/C=C2\CCC[C@]3(C)[C@@H]([C@H](C)CCCC(C)(C)O)CC[C@@H]23)C[C@H]1O (stereo partly drawn) [Compound 12, 2α-methyl-19-nor-1,25-(OH)2D3]
ability to bind the porcine intestinal vitamin D receptor, in words [1]: about as active as 1α,25-(OH)2D3
HL-60 differentiation, more active than corresponding 2β-isomer [2]: 100 times
induction of differentiation of HL-60 cells to monocytes, in words [2]: extremely potent
Intestinal Calcium Transport (S/M) [3, 9]: 4.3 ± 1.0 S/M
Intestinal Calcium Transport (S/M) [3, 10]: 5.3 ± 1.3 S/M
intestinal calcium transport activity, in words [3]: some intestinal calcium transport activity
Serum Calcium [4, 9]: 4.8 ± 0.2 mg/100 ml
Serum Calcium [4, 10]: 5.8 ± 0.5 mg/100 ml
bone calcium mobilization (serum calcium) activity, in words [4]: relatively strong bone calcium mobilization at both dose levels

CC1[C@H](O)CC(=C/C=C2\CCC[C@@]3(C)C2CCC3[C@@H](C)CCCC2(O)CCCC2)C[C@H]1O (stereo partly drawn) [Compound 49, 20(S)-1α,25-Dihydroxy-26,27-dimethylene-2β-methyl-19-norvitamin D3]
VDR Binding ratio ([1]; Table 8): 2.6
EC50 ([1]; Table 8): 2.3 nM
HL-60 Differentiation Activity ratio ([2]; Table 8): 0.08
HL-60 Differentiation ED50 ([2]; Table 8): 0.32 nM
Ca Transport S/M (mean ± SEM) [5, 11]: 4.9 ± 0.6^d^1 S/M
Ca Transport S/M (mean ± SEM) [5, 12]: 5.4 ± 0.7^d^2 S/M
Serum Ca (mean ± SEM) [6, 11]: 5.8 ± 0.2^d^1
Serum Ca (mean ± SEM) [6, 12]: 9.5 ± 0.1^d^2

CC(CCCC(C)(C)O)C1CCC2C(=CC=C3CC(O)C(C)C(O)C3)CCCC21C (stereo not drawn) [Compound 18, 2α-methyl-19-nor-20S-1,25-(OH)2D3]
ability to bind the porcine intestinal vitamin D receptor, in words [1]: about as active as 1α,25-(OH)2D3
HL-60 differentiation, more active than corresponding 2β-isomer [2]: 10 times
induction of differentiation of HL-60 cells to monocytes, in words [2]: extremely potent
Intestinal Calcium Transport (S/M) [3, 13]: 12.9 ± 1.9 S/M
Intestinal Calcium Transport (S/M) [3, 14]: 8.4 ± 1.1 S/M
intestinal calcium transport activity, in words [3]: significant change in intestinal calcium transport at both the 260 pmol and the 130 pmol dose levels
Serum Calcium ([4]; Table 3, 130 pmol/day/7 days i.p., mean±SEM, listed as 2α-Methyl-19-nor-20(S)-1,25-(OH)2D3): 8.3 ± 0.7 mg/100 ml
Serum Calcium ([4]; Table 3, 130 pmol/day/7 days i.p., mean±SEM, listed as 2α-methyl-19-nor-20S-1,25-(OH)2D3): 8.3±0.7 mg/100 ml
Serum Calcium ([4]; Table 3, 260 pmol/day/7 days i.p., mean±SEM, listed as 2α-Methyl-19-nor-20(S)-1,25-(OH)2D3): 10.3 ± 0.11 mg/100 ml
Serum Calcium ([4]; Table 3, 260 pmol/day/7 days i.p., mean±SEM, listed as 2α-methyl-19-nor-20S-1,25-(OH)2D3): 10.3±0.11 mg/100 ml
bone calcium mobilization (serum calcium) activity, in words [4]: much higher than that of the native hormone

C[C@H](CCCC(C)(C)O)[C@H]1CC[C@H]2/C(=C/C=C3C[C@@H](O)C(CO)[C@H](O)C3)CCC[C@]12C (stereo partly drawn) [Compound 20, 1α,25-Dihydroxy-2α-(hydroxymethyl)-19-norvitamin D3]
ability to bind the porcine intestinal vitamin D receptor, in words [1]: about the same binding affinity as 23

CC(CCCC(C)(C)O)C1CCC2C(=CC=C3CC(O)C(CO)C(O)C3)CCCC21C (stereo not drawn) [Compound 21, 1α,25-Dihydroxy-2β-(hydroxymethyl)-19-norvitamin D3]
receptor binding, less effective than 2α-hydroxymethyl analog 20 ([1]; relative to 20): ca. 8 times

CC(CCCC(C)(C)O)C1CCC2C(=CC=C3CC(O)C(CO)C(O)C3)CCCC21C [Compound 23, 20(S)-1α,25-Dihydroxy-2β-(hydroxymethyl)-19-norvitamin D3]
receptor binding, less potent than 22 and 1α,25-(OH)2D3 ([1]; relative to 22 and 1α,25-(OH)2D3): 6–8 ×
induction of differentiation of HL-60 cells to monocytes, in words [2]: high potency in cellular differentiation
Intestinal Calcium Transport (S/M) [3, 15]: 3.5 ± 0.7 S/M
Intestinal Calcium Transport (S/M) [3, 16]: 3.5 ± 0.3 S/M
Serum Calcium [4, 15]: 3.6 ± 0.1 mg/100 ml
Serum Calcium [4, 16]: 3.5 ± 0.2 mg/100 ml
calcemic activity (intestinal calcium transport and bone calcium mobilization), in words [4]: relatively inactive; also recorded: lack of calcemic activity

CCC(O)(CC)CCCC(C)C1CCC2C(=CC=C3CC(O)C(C)C(O)C3)CCCC21C [Compound 36, 20(S)-1α,25-Dihydroxy-2α-methyl-26,27-dihomo-19-nor-vitamin D3]
VDR Binding ratio ([1]; Table 6): 3.6
EC50 ([1]; Table 6): 3.1 nM
HL-60 Differentiation Activity ratio ([2]; Table 6): 0.01
HL-60 Differentiation ED50 ([2]; Table 6): 0.06 nM
Ca Transport S/M (mean ± SEM) [5, 17]: 5.8 ± 0.4^d^1 S/M
Ca Transport S/M (mean ± SEM) [5, 18]: 8.4 ± 0.8^d^2 S/M
Serum Ca (mean ± SEM) [6, 17]: 5.9 ± 0.2^d^1
Serum Ca (mean ± SEM) [6, 18]: 9.3 ± 0.2^d^2

CC1C(O)CC(=CC=C2CCC[C@]3(C)[C@@H]([C@@H](C)CCCC(C)(C)O)CC[C@@H]23)CC1O (stereo partly drawn) [Compound 19, 20(S)-1α,25-Dihydroxy-2β-methyl-19-nor-vitamin D3]
ability to bind the porcine intestinal vitamin D receptor, in words [1]: about as active as 1α,25-(OH)2D3
induction of differentiation of HL-60 cells to monocytes, in words [2]: high potency in cellular differentiation
Intestinal Calcium Transport (S/M) [3, 13]: 2.9 ± 0.3 S/M
Intestinal Calcium Transport (S/M) [3, 14]: 3.8 ± 0.1 S/M
intestinal calcium transport activity, in words [3]: little, if any, intestinal calcium transport activity
Serum Calcium [4, 13]: 4.4 ± 0.1 mg/100 ml
Serum Calcium [4, 14]: 4.4 ± 0.1 mg/100 ml
bone calcium mobilization (serum calcium) activity, in words [4]: little, if any, bone mobilization activity
calcemic activity (intestinal calcium transport and bone calcium mobilization), in words [4]: lack of calcemic activity

CC1[C@H](O)CC(=C/C=C2\CCC[C@]3(C)[C@@H]([C@H](C)CCCC(C)(C)O)CC[C@@H]23)C[C@H]1O (stereo partly drawn) [Compound 13, 1α,25-Dihydroxy-2β-methyl-19-nor-vitamin D3]
receptor binding, less effective than 1α,25-(OH)2D3 ([1]; relative to 1α,25-(OH)2D3): 39 fold
induction of differentiation of HL-60 cells to monocytes, in words [2]: high potency in cellular differentiation
Intestinal Calcium Transport (S/M) [3, 19]: 4.4 ± 0.8 S/M
Intestinal Calcium Transport (S/M) [3, 20]: 3.1 ± 0.9 S/M
intestinal calcium transport activity, in words [3, 21]: little, if any
Serum Calcium [4, 19]: 4.1 ± 0.1 mg/100 ml
Serum Calcium [4, 20]: 3.8 ± 0.2 mg/100 ml
bone calcium mobilization (serum calcium) activity, in words [4, 21]: little, if any
calcemic activity (intestinal calcium transport and bone calcium mobilization), in words [4]: lack of calcemic activity
